A short description of data set [1]: Solubility test of finasteride and coating materials (visual observation). The format is physicochemical. The conditions noted are these: organic solvent-water mixture solvents of Comparative Example 1, 2, 5, 6, and 7; visually observed. The procedure:
Finasteride, Kollicoat® IR, povidone, and polyvinyl alcohol were added to the organic solvent-water mixture solvents in a variety of ratios presented in Tables 1 to 4, and it was visually observed whether finasteride, Kollicoat® IR, povidone, and polyvinyl alcohol were soluble or not in each of the organic solvent-water mixture solvents.

Data set [2] in a line: Crystalline form analysis of dried film by X-ray diffractometry (Test Example 4). In kind it is physicochemical. The conditions noted are these: raw material powder or dried film from the film coating solution. As to the method: Each film coating solution prepared in Examples 2 and 7 and Comparative Example 2 was sprayed on a Petri dish and dried to form a film. These films were collected, and crystalline forms thereof were analyzed using an X-ray diffractometer (D8 Advance, Bruker) with Cu X-ray radiation at a voltage of 40 kV, at a current of 100 mA, and with a scan rate of 3 deg/min. The results of the X-ray diffractometry of finasteride powder as a raw material, and the dried films prepared using the film coating solutions of Examples 2 and 7 and Comparative Example 2 are shown in FIG. 5.

In patent publication EP3150201B1, “COMPOSITE PREPARATION COMPRISING 5- -REDUCTASE INHIBITOR-CONTAINING FILM COATING LAYER, AND METHOD FOR PRODUCING THE COMPOSITE PREPARATION” (Hanmi Pharm. Co., Ltd., priority 2014, dated 2016) one finds soluble or not and crystalline form data, which are given here for one compound.

`CC(C)(C)NC(=O)[C@H]1CC[C@H]2[C@@H]3CC[C@H]4NC(=O)C=C[C@]4(C)[C@H]3CC[C@]12C` [Finasteride, finasteride]: the soluble or not entry in data set [1] was “insoluble”. Besides, the crystalline form entry in data set [2] is “crystalline”.
